Assay results: patent US8598208B2, “Pyridine derivatives as S1P1/EDG1 receptor modulators” (Actelion Pharmaceuticals Ltd., priority 2007, dated 2013)

Each compound was assayed against recombinant human S1P1 receptor (Homo sapiens, UniProt P21453) (assay: GTPγS assay to determine EC50 values). Settings: membrane preparations of CHO cells expressing recombinant human S1P1 receptor; pH 7.4; read-out: EC50 (agonistic activity, 35S-GTPγS binding).
Type: biochemical
Protocol: GTPγS binding assays are performed in 96 well microtiter plates (Nunc, 442587) in a final volume of 200 μl, using membrane preparations of CHO cells expressing recombinant human S1P1 receptor. Assay conditions are 20 mM Hepes (Fluka, 54461), 100 mM NaCl (Fluka, 71378), 5 mM MgCl2 (Fluka, 63064), 0.1% BSA (Calbiochem, 126609), 1 μM GDP (Sigma, G-7127), 2.5% DMSO (Fluka, 41644), […] ^35S-GTPγS (Amersham Biosciences, SJ1320). The pH is 7.4. Test compounds are dissolved and diluted in 100% DMSO and pre-incubated at room temperature for 30 min in 150 μl of the above assay buffer, in the absence of ^35S-GTPγS. After addition of 50 μl of ^35S-GTPγS, the assay is incubated for 1 h at rt. The assay is terminated by transfer of the reaction mixture to a Multiscreen plate (Millipore, MAHFC1H60) using a cell harvester from Packard Biosciences, and the plates are washed with ice-cold 10 mM Na2HPO4/NaH2PO4 (70%/30%), dried, sealed at the bottom and, after addition of 25 μl MicroScint20 (Packard Biosciences, order#6013621), sealed on the top. Membrane-bound ^35S-GTPγS is measured with a TopCount from Packard Biosciences.
EC50 is the concentration of agonist inducing 50% of the maximal specific ^35S-GTPγS binding. Specific binding is determined by subtracting non-specific binding from maximal binding. Maximal binding is the amount of cpm bound to the Multiscreen plate in the presence of 10 μM of S1P. Non-specific binding is the amount of binding in the absence of an agonist in the assay.

Sequence of recombinant human S1P1 receptor (P21453 whole entry): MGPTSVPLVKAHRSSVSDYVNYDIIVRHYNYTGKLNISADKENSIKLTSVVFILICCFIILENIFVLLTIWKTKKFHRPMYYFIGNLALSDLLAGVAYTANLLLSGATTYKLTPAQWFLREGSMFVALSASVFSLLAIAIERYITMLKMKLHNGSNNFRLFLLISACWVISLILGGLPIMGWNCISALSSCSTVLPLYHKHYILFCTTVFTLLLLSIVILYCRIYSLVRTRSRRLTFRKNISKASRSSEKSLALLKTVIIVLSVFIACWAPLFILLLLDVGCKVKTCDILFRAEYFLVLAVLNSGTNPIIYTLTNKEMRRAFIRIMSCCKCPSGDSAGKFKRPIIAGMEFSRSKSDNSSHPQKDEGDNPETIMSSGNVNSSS

| Structure (SMILES) | EC50 |
| --- | --- |
| CCc1cc(-c2noc(-c3cc(C)nc(CC)c3)n2)cc(C)n1 [Example 2] | 5.2 nM |
| CCCc1cc(-c2nc(-c3cc(C)nc(C)c3)no2)cc(C)n1 [Example 6] | 2.4 nM |
| Cc1cc(-c2noc(-c3cc(C)nc(CC(C)C)c3)n2)cc(C)n1 [Example 8] | 0.4 nM |
| CCNc1cc(-c2nc(-c3cc(C)nc(CC)c3)no2)cc(C)n1 [Example 29] | 0.9 nM |
| Cc1cc(-c2nc(-c3cnc(NC(C)C)c(C)c3)no2)cc(CC(C)C)n1 [Example 39] | 6.1 nM |
| CCc1cc(-c2noc(-c3cc(C)nc(C(CC)CC)c3)n2)cc(C)n1 [Example 45] | 0.4 nM |
| CCc1cc(-c2nc(-c3cc(C)nc(C)c3)no2)cc(CC(C)C)n1 [Example 61] | 1 nM |
| CCc1cc(-c2noc(-c3cc(CC)nc(CC(C)C)c3)n2)cc(C)n1 [Example 62] | 1.4 nM |
| CCC(CC)c1cc(-c2nc(-c3cc(C)nc(C)c3)no2)cc(C)n1 [Example 65] | 0.5 nM |
| Cc1cc(-c2noc(-c3cc(C)nc(C4CCCC4)c3)n2)cc(C)n1 [Example 66] | 0.3 nM |
| CCc1cc(-c2noc(-c3cc(OC)nc(C4CCCC4)c3)n2)cc(C)n1 [Example 117] | 2.1 nM |

What follows are compounds tested on circulating lymphocytes (assay: Assessment of in vivo efficacy: circulating lymphocytes after oral administration). Settings: 6 h after oral administration of 3 mg/kg, male Wistar rats, compared to vehicle group; mean ± SEM.
Design: species or system normotensive male Wistar rats
Protocol: The efficacy of the compounds of Formula (I) is assessed by measuring the circulating lymphocytes after oral administration of 3 to 30 mg/kg of a compound of Formula (I) to normotensive male Wistar rats. The animals are housed in climate-controlled conditions with a 12 h-light/dark cycle, and have free access to normal rat chow and drinking water. Blood is collected before and 3, 6 and 24 h after drug administration. Full blood is subjected to hematology using Advia Hematology system (Bayer Diagnostics, Zürich, Switzerland).
All data are presented as mean±SEM. Statistical analyses are performed by analysis of variance (ANOVA) using Statistica (StatSoft) and the Student-Newman-Keuls procedure for multiple comparisons. The null hypothesis is rejected when p≦0.05.

| Structure (SMILES) | Lymphocyte counts |
| --- | --- |
| CCCc1cc(-c2nc(-c3cc(C)nc(C)c3)no2)cc(C)n1 [Example 6] | −68% ± 3%^ |
